These results are taken from patent US4968672A, “Adenosine receptor prodrugs” (priority 1987, dated 1990).

Data set [1] deals with T1, A1 receptor (Rattus norvegicus, UniProt P25099).
T1 construct: rat cerebral cortex membranes; from tissue; host or cells: rat cerebral cortex membranes
T1 sequence (P25099 1-326): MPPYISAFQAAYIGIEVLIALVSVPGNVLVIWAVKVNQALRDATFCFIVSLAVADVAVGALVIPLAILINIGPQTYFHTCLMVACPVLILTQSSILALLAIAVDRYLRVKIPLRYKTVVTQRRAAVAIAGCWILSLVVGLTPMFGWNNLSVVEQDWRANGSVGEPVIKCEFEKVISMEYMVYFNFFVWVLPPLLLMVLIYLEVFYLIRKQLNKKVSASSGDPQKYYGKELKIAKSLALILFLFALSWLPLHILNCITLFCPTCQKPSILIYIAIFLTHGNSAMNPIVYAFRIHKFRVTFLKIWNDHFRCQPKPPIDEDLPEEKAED
Description: inhibition of [3H]PIA binding to rat cerebral cortex membranes. As for the experimental part:
(§1) Measurements of the potencies of the xanthines as antagonists of NECA-induced stimulation of adenylate cyclase activity in human platetlet membranes and as inhibitors of [^3 H]PIA binding to rat cerebral cortex membranes were carried out as reported previously.

Data set [2] has as its target T2, A2 receptor (Homo sapiens, UniProt P29274).
T2 construct: human platetlet membranes; from tissue; host or cells: human platelet membranes
Description: antagonism of NECA-induced stimulation of adenylate cyclase activity in human platelet membranes. Format: biochemical. As for the experimental part:
as §1

Data set [3] in a line: octanol/water partition coefficient. The conditions noted are these: for logD: n-octanol / sodium phosphate pH 7.2, 0.1 M, read-out: octanol/water partition coefficient (log p). In kind it is physicochemical. As for the experimental part:
Partition coefficients were determined by addition of a dimethylsulfoxide solution (5 uL) of the xanthine to an equivolume mixture (2 mL) of n-octanol and aqueous sodium phosphate, pH 7.2, 0.1 M. After thorough mixing of phases and separation, the ratio of concentrations was determined by comparing absorption at 310 nm of aliquots diluted in methanol (the aqueous phase was filtered). The ±s.e.m. for six determinations corresponded to 0.01 log p units.

The target of data set [4] is T3, A1 adenosine receptors (Rattus norvegicus, UniProt P25099).
T3 construct: rat cerebral cortex membranes; from tissue; host or cells: rat cerebral cortex membranes
T3 sequence (P25099 1-326): T1 sequence (P25099 1-326)
Description: membrane binding assay at A1 adenosine receptors (Tables 1 and 2). Conditions: Table 2; read-out: Ki (A1(nM)). The text has this: Table 2 lists prodrugs (including Routes A and B of FIG. 2) and chemical intermediates, based on xanthine and adenosine functionalized congener and the method of synthesis. The potency of each compound at A1 adenosine receptors is indicated by the Ki (inverse relationship to potency) in a membrane binding assay.

Data set [5] has as its system blood brain barrier / central nervous system. The experiment in a line: brain entry / central side effects.
Where [6] appears, read: [3H]PIA, rat cerebral cortex membranes, means from two experiments, read-out: A1 receptor Ki.
The mark [7] stands for this setting: antagonism of NECA-stimulated adenylate cyclase, human platelet membranes, means with 95% confidence limits from 3 experiments, read-out: A2 receptor KB.

Where a name gives a salt, the structure may show the parent alone. Read-outs that look alike come from different tables or passages of the source.

T2 sequence (P29274 whole entry): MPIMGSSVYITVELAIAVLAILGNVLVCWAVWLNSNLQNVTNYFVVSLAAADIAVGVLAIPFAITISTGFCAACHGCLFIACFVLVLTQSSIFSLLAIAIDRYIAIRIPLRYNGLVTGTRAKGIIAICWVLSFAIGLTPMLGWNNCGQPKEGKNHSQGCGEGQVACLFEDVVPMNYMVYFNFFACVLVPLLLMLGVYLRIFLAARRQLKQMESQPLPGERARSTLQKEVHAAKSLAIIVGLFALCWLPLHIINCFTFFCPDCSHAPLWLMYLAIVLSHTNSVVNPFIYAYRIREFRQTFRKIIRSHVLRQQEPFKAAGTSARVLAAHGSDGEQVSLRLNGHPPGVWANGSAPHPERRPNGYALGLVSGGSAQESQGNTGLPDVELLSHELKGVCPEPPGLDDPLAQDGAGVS

A word on the Ki: it is a dissociation constant, usually derived from enzyme kinetics or from competition with a known ligand. As usually defined, the Kb is the affinity of an antagonist, worked out from how it opposes an agonist. Regarding `Cn1c(=O)c2[nH]c(-c3ccc(OCC(=O)Nc4ccc(CC(=O)NCCN)cc4)cc3)nc2n(C)c1=O` [Compound 59a], in data set [1] (setting [6]), the Ki stood at 42 nM. The Kb in data set [2] (setting [7]) was determined as 63 nM. Besides, the logD in data set [3] is -0.05.

On to `CCNC(=O)COc1ccc(-c2nc3c([nH]2)c(=O)n(CC)c(=O)n3CC)cc1` [Compound 55b], for which the Ki in data set [1] (setting [6]) came out at 57 nM. In data set [2] (setting [7]), the Kb was found to be 48 nM.

On to `CCn1c(=O)c2[nH]c(-c3ccc(OCC(=O)Nc4ccc(CC(=O)NCCN)cc4)cc3)nc2n(CC)c1=O` [Compound 59b], for which the Ki in data set [1] (setting [6]) worked out at 25 nM. Besides, in data set [2] (setting [7]), the Kb was 28 nM.

`CCn1c(=O)c2[nH]c(-c3ccc(OCC(=O)Nc4ccc(CC(=O)OC)cc4)cc3)nc2n(CC)c1=O` [Compound 58b, 8-[4-[[[[(4-Carboxymethyl)anilino]carbonyl]methyl]oxy]-phenyl]-1,3-diethylxanthine Methyl Ester]: the Ki in data set [1] (setting [6]) came to 58 nM. In addition, the Kb in data set [2] (setting [7]) is 210 nM.

On to `Cc1ccc(NC(=O)COc2ccc(-c3nc4c([nH]3)c(=O)n(C)c(=O)n4C)cc2)cc1` [Compound 57a], for which the Ki in data set [1] (setting [6]) was 27 nM.

As for `CCn1c(=O)c2[nH]c(-c3ccc(OCC(=O)NCCNC(=O)[C@H](N)CCCCN)cc3)nc2n(CC)c1=O` [Compound 61b, 8-[4-[(Carboxymethyl)oxy]phenyl]-1,3-diethylxanthine 2-(D-Lysylamino)ethylamide Dihydrochloride], in data set [2] (setting [7]), the Kb was 23 nM. Also, in data set [3], the logD was -1.2.

Turning to `CCCn1c(=O)c2[nH]c(-c3ccccc3)nc2n(CCC)c1=O` [Compound 51c, 1,3-dipropyl-8-phenylxanthine], in data set [1] (setting [6]), the Ki was found to be 13 nM.

Turning to `CCn1c(=O)c2[nH]c(-c3ccc(OCC(=O)N(C)CCN(C)C)cc3)nc2n(CC)c1=O` [tri-methyl substition of 56b], the Ki in data set [1] (read-out: Ki (A1-potency)) came out at 1.5 nM.

With `CCCn1c(=O)c2nc(-c3ccc(OCC(=O)NCCN)cc3O)[nH]c2n(CCC)c1=O` [2-hydroxyl analog of XAC], in data set [1] (read-out: Ki at central A1-receptors), the Ki came to 2.3 nM. The Kb in data set [2] (read-out: Kb for the reversal of NECA-stimulated adenylate cyclase activity in human platelets) is 140 nM.

With `CC(=O)N[C@@H](CCC(=O)NCCNC(=O)Cc1ccc(NC(=O)Cc2ccc(Nc3ncnc4c3ncn4[C@@H]3O[C@H](CO)[C@@H](O)[C@H]3O)cc2)cc1)C(=O)O` [Compound 35], in data set [4], the inhibition constant (Ki) is more than 10 nM. For the same compound, in data set [5], the central side effects entry is on record as “absent” and the “entry into the brain / passage across the blood brain barrier” value is listed as “excluded from passage across the blood brain barrier”.

Consider `CCOC(=O)COc1ccc(-c2nc3c([nH]2)c(=O)n(CC)c(=O)n3CC)cc1` [Compound 53b], for which, in data set [1] (setting [6]), the inhibitory constant (Ki) came to 140 nM. In addition, in data set [2] (setting [7]), the Kb is 170 nM.

Take `CCn1c(=O)c2[nH]c(-c3ccc(OCC(=O)Nc4ccc(C)cc4)cc3)nc2n(CC)c1=O` [Compound 57b]: in data set [1] (setting [6]), the inhibitory constant (Ki) was found to be 9.3 nM. Moreover, the Kb in data set [2] (setting [7]) amounted to 100 nM. In addition, in data set [2] (human platelets), the “A2 potency / affinity” value is listed as “not as potent at A2 -receptors as expected”.

`CCn1c(=O)c2[nH]c(-c3ccc(OCC(=O)OC(C)C)cc3)nc2n(CC)c1=O` [Compound 54b, 8-[4-[(Carboxymethyl)oxy]phenyl]-1,3-diethylxanthine 2-Propyl Ester]: in data set [1] (setting [6]), the Ki was 90 nM. Moreover, in data set [2] (setting [7]), the antagonist dissociation constant (Kb) came to 73 nM.

For the compound `Cn1c(=O)c2[nH]c(-c3ccc(OCC(=O)NCCN)cc3)nc2n(C)c1=O` [Compound 56a], the Ki in data set [1] (setting [6]) amounted to 13 nM. Moreover, the Kb in data set [2] (setting [7]) came to 40 nM. The “octanol/water partition coefficient (log p)” value in data set [3] (pH 7.2) was 0.63.

Consider `CCn1c(=O)c2[nH]c(-c3ccc(OCC(=O)NCCNC(=O)[C@@H](CCCCNC(=O)OCc4ccccc4)NC(=O)OC(C)(C)C)cc3)nc2n(CC)c1=O` [Compound 60b], for which the inhibition constant Ki in data set [1] (setting [6]) came out at 180 nM. Also, the Kb in data set [2] (setting [7]) is 230 nM.
